The record followed here is EPA's ToxRefDB 2.

What is called LOAEL is the lowest dose or exposure tested at which an adverse effect was seen. What is called NOAEL is the highest tested level that showed no adverse finding.

The test system of series [1] is dog. The following applies: Chronic toxicity, beagle, Oral, Feed, dose end: 2 year, group: systemic.
For series [2], the system named is rat. The settings on record: Carcinogenicity; sprague dawley; Oral; Gavage/Intubation; dose end: 105 week; group: systemic; systemic / clinical chemistry / [other] / [other] + systemic / organ weight / liver / relative to body weight + systemic / organ weight / ….
Series [3] concerns rat. The following applies: Carcinogenicity, Osborne-Mendel, Oral, Gavage/Intubation, dose end: 104 week, group: systemic.
Series [4] concerns dog. The following applies: Sub-acute repeat dose toxicity, beagle, Oral, Gavage/Intubation, dose end: 14 day, group: systemic.
Series [5] concerns rat. The settings on record: Sub-acute repeat dose toxicity, wistar, Oral, Gavage/Intubation, dose end: 28 day.
Series [6] deals with primate. The following applies: Sub-acute repeat dose toxicity; Oral; Gavage/Intubation; dose end: 28 day; group: systemic; systemic / in life observation / clinical signs / defecation (diarrhea) + systemic / in life observation / food consumption / food ….
The test system of series [7] is rat. The settings on record: Combined chronic toxicity/carcinogenicity, wistar, Oral, Feed, dose end: 104 week, group: systemic.
Series [8] deals with rat. The following applies: Combined chronic toxicity/carcinogenicity, wistar, Oral, Feed, dose end: 104 week, group: systemic. This is another data set of the same source.
Series [9] has as its system rat. The settings on record: Multigenerational reproductive toxicity study, sprague dawley, Oral, Feed, dose end: 2 generation.
Series [10] deals with rat. The settings on record: Prenatal developmental toxicity study, other, Oral, Gavage/Intubation, dose end: 15 GD.
The test system of series [11] is rat. The following applies: Subchronic oral toxicity in rodents, wistar, Feed, dose end: 3 month, group: systemic.
Series [12] concerns rat. The following applies: Sub-acute repeat dose toxicity; fischer; Oral; Feed; dose end: 14 day; group: systemic; systemic / in life observation / clinical signs / feces, discoloration + systemic / in life observation / food consumption / food ….
For series [13], the system named is mouse. The settings on record: Combined chronic toxicity/carcinogenicity; b6c3f1; Oral; Feed; dose end: 104 week; group: systemic; systemic / pathology microscopic / blood / lymphoma malignant + systemic / pathology microscopic / ovary / interstitial stromal tumor + ….
Series [14] concerns rat. The settings on record: Combined chronic toxicity/carcinogenicity; fischer; Oral; Feed; dose end: 104 week; group: systemic; systemic / pathology microscopic / adrenal gland / pheochromocytoma benign + systemic / pathology microscopic / adrenal gland / ….
The subject of series [15] is mouse. The settings on record: Subchronic oral toxicity in rodents, b6c3f1, Feed, dose end: 13 week, group: systemic.
Series [16] deals with rat. The settings on record: Subchronic oral toxicity in rodents, fischer, Feed, dose end: 13 week, group: systemic.
For series [17], the system named is mouse. The following applies: Carcinogenicity, b6c3f1, Oral, Feed, dose end: 105 week, group: systemic.
Series [18] concerns mouse. The settings on record: Subchronic oral toxicity in rodents, b6c3f1, Feed, dose end: 13 week, group: systemic. This is another data set of the same source.
Series [19] has as its system rat. The settings on record: Subchronic oral toxicity in rodents, fischer, Feed, dose end: 13 week, group: systemic. This is another data set of the same source.
For series [20], the system named is rat. The settings on record: Carcinogenicity; fischer; Oral; Feed; dose end: 105 week; group: systemic; systemic / in life observation / body weight / body weight + systemic / pathology microscopic / kidney / nephropathy + systemic / pathology ….
Series [21] deals with mouse. The following applies: Sub-acute repeat dose toxicity; b6c3f1; Oral; Feed; dose end: 14 day; group: systemic; systemic / in life observation / clinical signs / feces, discoloration.
The subject of series [22] is mouse. The settings on record: Carcinogenicity; b6c3f1; Oral; Feed; dose end: 104 week; group: systemic; systemic / in life observation / body weight / body weight.
The mark [23] stands for this setting: systemic / clinical chemistry / bilirubin / total bilirubin + systemic / hematology / anisocytosis / anisocytosis + systemic / hematology / ….
Where [24] appears, read: systemic / clinical chemistry / glucose / glucose.
The mark [25] stands for this setting: systemic / pathology microscopic / liver / carcinoma + systemic / pathology microscopic / liver / neoplastic nodule + systemic / pathology ….
Where [26] appears, read: systemic / pathology microscopic / thyroid gland / adenoma.
The mark [27] stands for this setting: systemic / in life observation / body weight / body weight + systemic / in life observation / clinical signs / salivation + systemic / in ….
[28] abbreviates: systemic / in life observation / body weight / body weight + systemic / pathology microscopic / kidney / vacuolization cytoplasmic + ….
Setting [29] is: group: systemic, systemic / hematology / polychromasia / polychromasia + systemic / in life observation / body weight / body weight + systemic / in life ….
[30] abbreviates: group: systemic, systemic / pathology microscopic / ovary / degeneration.
The mark [31] stands for this setting: systemic / clinical chemistry / alpha-2 globulin / alpha-2 globulin.
Where [32] appears, read: systemic / clinical chemistry / alpha-2 globulin / alpha-2 globulin + systemic / hematology / platelet / platelet + systemic / organ weight….
The mark [33] stands for this setting: systemic / hematology / platelet / platelet + systemic / organ weight / liver / relative to body weight + systemic / pathology microscopic….
The mark [34] stands for this setting: systemic / pathology microscopic / adrenal gland / pheochromocytoma benign + systemic / pathology microscopic / adrenal gland / ….
[35] abbreviates: group: offspring, developmental / offspring survival late / viability index / viability index + systemic / in life observation / body weight / offspring (pup….
Where [36] appears, read: group: parental, systemic / clinical chemistry / alpha-2 globulin / alpha-2 globulin + systemic / organ weight / kidney / absolute + systemic / organ weight….
Where [37] appears, read: group: developmental, developmental / developmental malformation / bone / full supernumerary + developmental / developmental malformation / general / [other].
Setting [38] is: group: maternal, systemic / in life observation / body weight / body weight gain + systemic / in life observation / food consumption / food consumption.
[39] abbreviates: group: maternal, systemic / in life observation / body weight / body weight gain + systemic / in life observation / food consumption / food consumption + ….
Setting [40] is: systemic / clinical chemistry / [other] / [other] + systemic / in life observation / body weight / body weight gain.
[41] abbreviates: systemic / organ weight / kidney / absolute + systemic / organ weight / kidney / relative to body weight + systemic / organ weight / kidney….
[42] abbreviates: systemic / organ weight / epididymis / absolute + systemic / organ weight / testes / absolute + systemic / organ weight / testes / relative ….
The mark [43] stands for this setting: systemic / organ weight / testes / absolute.
[44] abbreviates: systemic / organ weight / liver / absolute + systemic / organ weight / liver / relative to body weight.
Where [45] appears, read: systemic / pathology microscopic / spleen / hematopoietic cell proliferation + systemic / pathology microscopic / testes / degeneration.
Where [46] appears, read: systemic / pathology microscopic / spleen / hematopoietic cell proliferation + systemic / pathology microscopic / testes / degeneration + ….
Setting [47] is: systemic / organ weight / epididymis / nos + systemic / organ weight / liver / absolute + systemic / organ weight / testes / absolute + ….
Setting [48] is: systemic / clinical chemistry / bile acids / bile acids + systemic / in life observation / food consumption / food consumption + systemic / ….

`CC(O)CO` (configuration not stated) [1,2-Propylene glycol]: in [1] (setting [23]), the LOAEL is more than 5000 mg/kg/day and the NOAEL was not below 5000 mg/kg/day. In series [1] (setting [24]), the LEL was determined as 2000 mg/kg/day and the NEL is less than 2000 mg/kg/day.
As to `Clc1cc2c(cc1Cl)Oc1cc(Cl)c(Cl)cc1O2` [2,3,7,8-Tetrachlorodibenzo-p-dioxin], in [2], the LEL is 3e-06 mg/kg/day, the LOAEL is more than 0.0001 mg/kg/day, the NEL was less than 3e-06 mg/kg/day and the no observed adverse effect level (NOAEL) was not below 0.0001 mg/kg/day. In series [3] (setting [25]), the LOAEL is more than 0.0005 mg/kg/day and the NOAEL is not below 0.0005 mg/kg/day. In series [3] (setting [26]), this compound returned an LEL of 1e-05 mg/kg/day and an NEL of less than 1e-05 mg/kg/day.
For the compound `O=c1[nH]c2ccc(S(=O)CCN3CCC(Cc4ccc(F)cc4)CC3)cc2o1` (configuration not stated) [Besonprodil], the LEL turned out to be 30 mg/kg/day in series [4] (setting [27]); 200 mg/kg/day in series [5] (group: maternal, reproductive / reproductive performance / estrous cycle / absent corpora lutea); 25 mg/kg/day in series [5] (setting [30]); 25 mg/kg/day in series [6]. Further, the NEL was less than 30 mg/kg/day in series [4] (setting [27]), less than 25 mg/kg/day in series [5] (setting [30]) and less than 25 mg/kg/day in [6]. The lowest-observed-adverse-effect level (LOAEL) was more than 300 mg/kg/day in [4] (setting [28]), more than 300 mg/kg/day in [5] (setting [29]) and more than 500 mg/kg/day in series [6]. The figures for the NOAEL in [4] (setting [28]), in [5] (setting [29]) and in series [6] were not below 300 mg/kg/day, not below 300 mg/kg/day and not below 500 mg/kg/day, respectively.
Regarding `ClC1C(Cl)C(Cl)C(Cl)C(Cl)C1Cl` (configuration not stated) [Lindane], the LEL stood at 0.05 mg/kg/day in series [7] (setting [31]); 0.05 mg/kg/day in series [8] (setting [34]); 13.1 mg/kg/day in series [9] (setting [35]); 1.71 mg/kg/day in series [9] (setting [36]); 20 mg/kg/day in series [10] (setting [37]); 10 mg/kg/day in [10] (setting [38]). The LEL in series [11] (setting [40]) amounted to 0.01 mg/kg/day. The NEL was less than 0.05 mg/kg/day in series [7] (setting [31]); less than 0.05 mg/kg/day in series [8] (setting [34]); 1.71 mg/kg/day in series [9] (setting [35]); 0.0865 mg/kg/day in [9] (setting [36]); 10 mg/kg/day in [10] (setting [37]); 5 mg/kg/day in series [10] (setting [39]). Also, the NEL in [11] (setting [40]) was less than 0.01 mg/kg/day. Moreover, the lowest-observed-adverse-effect level (LOAEL) in [7] (setting [32]) is 4.81 mg/kg/day; in series [8] (setting [33]), 4.81 mg/kg/day; in series [9] (setting [35]), 13.1 mg/kg/day; in series [9] (group: parental, systemic / clinical chemistry / alpha-2 globulin / alpha-2 globulin), 1.71 mg/kg/day; in series [10] (setting [37]) it was 20 mg/kg/day; in [10] (setting [38]) it was 10 mg/kg/day. Besides, the LOAEL in series [11] (setting [41]) worked out at 1 mg/kg/day. Besides, the no observed adverse effect level (NOAEL) in [7] (setting [32]) was 0.47 mg/kg/day; in series [8] (setting [33]), 0.47 mg/kg/day; in series [9] (setting [35]), 1.71 mg/kg/day; in series [9] (setting [36]), 0.0865 mg/kg/day; in series [10] (setting [37]) it was 10 mg/kg/day; in series [10] (setting [39]), 5 mg/kg/day. In addition, in [11] (setting [41]), the NOAEL was found to be 0.2 mg/kg/day.
Take `O=C1OC(c2ccc(O)cc2)(c2ccc(O)cc2)c2ccccc21` [Phenolphthalein]: the LEL in series [12] worked out at 10500 mg/kg/day; in series [13], 300 mg/kg/day; in series [14] it was 500 mg/kg/day; in series [15] (setting [43]), 500 mg/kg/day; in [16] (systemic / organ weight / liver / relative to body weight), 800 mg/kg/day; in series [17] (setting [46]) it was 300 mg/kg/day. For the same compound, the LEL came out at 509 mg/kg/day in series [18] (setting [43]), 383 mg/kg/day in series [19] (systemic / clinical chemistry / bile acids / bile acids), 500 mg/kg/day in series [20] and 15000 mg/kg/day in series [21]. Further, the LOAEL in series [12] is more than 10500 mg/kg/day; in series [13], more than 1200 mg/kg/day; in [14], more than 2000 mg/kg/day; in [15] (setting [42]), 2000 mg/kg/day; in [16] (setting [44]), more than 3500 mg/kg/day; in series [17] (setting [45]), 300 mg/kg/day. In addition, the lowest-observed-adverse-effect level (LOAEL) in series [18] (setting [47]) is more than 9140 mg/kg/day; in [19] (setting [48]) it was more than 3490 mg/kg/day; in [20], 500 mg/kg/day; in series [21], more than 15000 mg/kg/day. Further, the NEL is 4500 mg/kg/day in series [12]; less than 300 mg/kg/day in series [13]; less than 500 mg/kg/day in series [14]; less than 500 mg/kg/day in series [15] (setting [43]); 400 mg/kg/day in [16] (setting [44]); less than 300 mg/kg/day in series [17] (setting [46]). The NEL in series [18] (setting [43]) is less than 509 mg/kg/day; in series [19] (setting [48]), 192 mg/kg/day; in series [20], less than 500 mg/kg/day; in [21] it was 7500 mg/kg/day. Further, the no observed adverse effect level (NOAEL) was not below 10500 mg/kg/day in series [12]; not below 1200 mg/kg/day in series [13]; not below 2000 mg/kg/day in series [14]; 1000 mg/kg/day in series [15] (setting [42]); not below 3500 mg/kg/day in series [16] (setting [44]); less than 300 mg/kg/day in series [17] (setting [45]). For the same compound, the no observed adverse effect level (NOAEL) in series [18] (setting [47]) was not below 9140 mg/kg/day; in [19] (setting [48]) it was not below 3490 mg/kg/day; in series [20], less than 500 mg/kg/day; in [21] it was not below 15000 mg/kg/day.
Regarding `O=C1OC(=O)c2ccccc21` [Phthalic anhydride], in series [22], the LEL is 1800 mg/kg/day, the LOAEL came out at 1800 mg/kg/day, the NEL was less than 1800 mg/kg/day and the NOAEL is less than 1800 mg/kg/day.
